The values that follow come from ChEMBL document CHEMBL1132071, “Benzenesulfonamide derivatives of 2-substituted 4H-3,1-benzoxazin-4-ones and benzthiazin-4-ones as inhibitors of complement C1r protease” (Bioorg Med Chem Lett, 1999).

Experiment [1] addresses T1, Complement C1r subcomponent (Homo sapiens, UniProt P00736).
T1 sequence (P00736 whole entry): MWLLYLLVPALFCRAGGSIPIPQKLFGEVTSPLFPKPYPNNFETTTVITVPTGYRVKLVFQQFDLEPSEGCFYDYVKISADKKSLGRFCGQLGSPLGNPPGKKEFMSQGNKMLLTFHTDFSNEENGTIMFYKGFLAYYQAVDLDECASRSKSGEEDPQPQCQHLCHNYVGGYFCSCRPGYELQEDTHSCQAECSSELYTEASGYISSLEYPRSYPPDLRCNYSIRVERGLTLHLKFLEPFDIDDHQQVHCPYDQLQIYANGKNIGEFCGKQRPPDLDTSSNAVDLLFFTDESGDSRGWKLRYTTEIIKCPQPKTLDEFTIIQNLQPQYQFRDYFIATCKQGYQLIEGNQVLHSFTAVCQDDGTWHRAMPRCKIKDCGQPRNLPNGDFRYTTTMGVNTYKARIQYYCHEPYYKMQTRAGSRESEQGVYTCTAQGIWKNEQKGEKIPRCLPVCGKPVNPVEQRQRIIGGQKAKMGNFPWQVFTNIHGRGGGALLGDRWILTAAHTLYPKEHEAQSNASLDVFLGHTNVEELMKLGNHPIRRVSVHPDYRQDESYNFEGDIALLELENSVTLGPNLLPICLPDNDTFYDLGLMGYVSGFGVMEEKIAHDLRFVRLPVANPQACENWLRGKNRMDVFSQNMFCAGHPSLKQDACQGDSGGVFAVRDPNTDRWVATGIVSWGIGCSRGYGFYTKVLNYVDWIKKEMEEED
The experiment is described as follows: In vitro inhibition of purified human C1r protease.

Experiment [2] has as its target T1, Complement C1r subcomponent. In words: Evaluated in vitro for inhibitory activity against purified human C1r protease incubated in buffer for 60 minutes.
Experiment [3] can be described thus: (§1) Inhibitory activity against hemolysis at 200 uM using suspension of sheep erythrocytes sensitized with antibodies to sheep erythrocytes. It is filed as functional. As to conditions: Ovis aries.
Experiment [4] has as its target T2, Complement C1r subcomponent (Homo sapiens) (UniProt P00736).
T2 sequence (whole entry): T1 sequence (P00736 whole entry)
In words: Compound was evaluated for inhibitory activity against purified human C1r protease at 31.2 uM.

The nature of experiment [5]: Compound was evaluated for inhibitory activity in hemolysis assay using suspension of sheep erythrocytes sensitized with antibodies to sheep erythrocytes. It counts as functional, Ovis aries.
Experiment [6] has as its target T2, Complement C1r subcomponent (Homo sapiens). The experiment is described as follows: Compound was evaluated for inhibitory activity against purified human C1r protease at 15 uM concentration.
Experiment [7] is described as follows: as §1. Further details: scale not given: the % may be the effect or the level left. It counts as functional, Ovis aries.
Experiment [8] can be described thus: Percent of inhibition at 200 uM was determined in hemolysis assay using suspension of sheep erythrocytes sensitized with antibodies to sheep erythrocytes. It is filed as functional, Ovis aries. Set-up: scale not given: the % may be the effect or the level left.
Experiment [9] has as its target T2, Complement C1r subcomponent (Homo sapiens). The experiment is described as follows: Compound was evaluated for inhibitory activity against purified human C1r protease at 62 uM was reported after 60 min.

The compound `COc1ccc(S(=O)(=O)N(C)c2nc3ccccc3c(=O)s2)cc1` yielded an IC50 in experiment [1] greater than 62.5 µM.

For `CCN(c1nc2ccccc2c(=O)o1)S(=O)(=O)c1ccccc1`, the results for the IC50 in experiment [1] and in experiment [2] were 3.2 µM and 8.3 µM, respectively. Also, the inhibition at 200 µM in experiment [3] was determined as 86%.

As for `CN(c1nc2ccccc2c(=O)o1)S(=O)(=O)c1ccc(C(C)(C)C)cc1`, the IC50 in [1] and in experiment [2] was greater than 60 µM each time.

Consider `CN(c1nc2ccccc2c(=O)o1)S(=O)(=O)c1cccc(Cl)c1`, for which the IC50 was found to be 24 µM in [1] and 58 µM in experiment [2]. Moreover, the inhibition at 200 µM in experiment [3] stood at 49%.

On to `CN(c1nc2ccccc2c(=O)o1)S(=O)(=O)c1ccccc1Br`, for which the IC50 worked out at 2.8 µM in experiment [1] and 25 µM in [2].

Compound `CN(c1nc2ccccc2c(=O)o1)S(=O)(=O)c1ccc(Cl)cc1` showed an IC50 in [2] greater than 62 µM. This compound came in with an inhibition in experiment [4] of 40%.

With `CN(c1nc2ccccc2c(=O)o1)S(=O)(=O)c1ccc(NC(=N)N)cc1`, the IC50 was found to be 1.5 µM in experiment [1], 3 µM in [2] and 18 µM in [5].

Turning to `N=C(N)Nc1ccc(C(=O)Oc2ccc3cc(C(=N)N)ccc3c2)cc1` [NAFAMOSTAT], the IC50 in experiment [5] stood at 16.6 µM.

The compound `CN(c1nc2ccccc2c(=O)o1)S(=O)(=O)c1ccc(Cl)c(Cl)c1` yielded an inhibition in experiment [6] of 20%. The IC50 in [2] was greater than 62.5 µM.

On to `CN(c1nc2ccccc2c(=O)o1)S(=O)(=O)c1ccccc1`, for which the IC50 is 4 µM in [1] and 6 µM in experiment [2]. Moreover, the Control in [7] is 162%.

For `CN(c1nc2ccccc2c(=O)o1)S(=O)(=O)c1cccc2ccccc12`, the IC50 in experiment [1] worked out at 6 µM; in experiment [2], 10 µM. The inhibition at 200 µM in experiment [3] is 56%.

Take `COc1ccc(S(=O)(=O)N(C)c2nc3ccccc3c(=O)o2)cc1`: the IC50 in experiment [1] was 0.7 µM; in experiment [2], 6 µM. The inhibition at 200 µM in [3] was 80%.

Regarding `CCN(c1nc2ccccc2c(=O)o1)S(=O)(=O)c1ccc(Cl)cc1`, the IC50 was determined as 30 µM in experiment [1] and 62 µM in experiment [2].

Take `O=c1oc(Nc2ccccc2I)nc2cc(C(F)(F)F)ccc12`: the Control in experiment [8] is reported as 146%.

For `CN(c1nc2ccccc2c(=O)o1)S(=O)(=O)c1c(Cl)cccc1Cl`, the IC50 in [1] is 7.5 µM; in [2], greater than 62 µM.

Regarding `CN(c1nc2ccccc2c(=O)o1)S(=O)(=O)c1ccc(N)cc1`, the values for the IC50 in experiment [1], in experiment [2] and in experiment [5] were 7 µM, 62 µM and 8 µM, respectively.

Take `CN(c1nc2ccccc2c(=O)s1)S(=O)(=O)c1ccccc1`: the IC50 in [1] is greater than 62.5 µM. Moreover, the Control in experiment [7] worked out at 162%.

`CN(c1nc2ccccc2c(=O)o1)S(=O)(=O)c1ccc([N+](=O)[O-])cc1` came in with an IC50 in experiment [1] of 31 µM.

Compound `CN(c1nc2ccccc2c(=O)o1)S(=O)(=O)c1ccc(C#N)cc1` yielded an inhibition in experiment [9] of 30%. The same compound had an IC50 in [1] of 20 µM.

As to `Cc1ccc(S(=O)(=O)N(C)c2nc3ccccc3c(=O)o2)cc1`, in [9], the inhibition was 40%. This compound yielded an IC50 in [1] of 7.8 µM.
